pIC50: −log10 of the molar value.
Tested on: 323965-272-R-J2-PDC complex spheroid viability
Assay: Anticancer human tumor 323965-272-R-J2-PDC patient-derived pancreatic carcinoma cell line growth inhibition [CLK]
Conditions: for pIC50: curve of first compound; for viability, T/C: stronger effect = lower value
Method in brief: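 Multi-cell-type spheroids combined patient-derived tumor cells with HUVEC endothelial cells and human mesenchymal stem cells. Paired agents were dosed in half-log steps down from about clinical Cmax, or from 10 microM where Cmax was unknown.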

[1] = second compound 0.0316 µM, first compound 0.0316 µM
[2] = second compound 0.0316 µM, first compound 0.1 µM
[3] = second compound 0.1 µM, first compound 0.0316 µM
[4] = second compound 0.1 µM, first compound 0.1 µM
[5] = second compound 0.316 µM, first compound 0.0316 µM
[6] = second compound 0.316 µM, first compound 0.1 µM
[7] = second compound 1 µM, first compound 0.0316 µM
[8] = second compound 1 µM, first compound 0.1 µM
[9] = second compound 3.16 µM, first compound 0.0316 µM
[10] = second compound 3.16 µM, first compound 0.1 µM
[11] = second compound 10 µM, first compound 0.0316 µM
[12] = second compound 10 µM, first compound 0.1 µM
[13] = second compound 0.0316 µM, first compound 0.316 µM
[14] = second compound 0.0316 µM, first compound 1 µM
[15] = second compound 0.0316 µM, first compound 3.16 µM
[16] = second compound 0.0316 µM, first compound 10 µM
[17] = second compound 0.1 µM, first compound 0.316 µM
[18] = second compound 0.1 µM, first compound 1 µM
[19] = second compound 0.1 µM, first compound 3.16 µM
[20] = second compound 0.1 µM, first compound 10 µM
[21] = second compound 0.316 µM, first compound 0.316 µM
[22] = second compound 0.316 µM, first compound 1 µM
[23] = second compound 0.316 µM, first compound 3.16 µM
[24] = second compound 0.316 µM, first compound 10 µM
[25] = second compound 1 µM, first compound 0.316 µM
[26] = second compound 1 µM, first compound 1 µM
[27] = second compound 1 µM, first compound 3.16 µM
[28] = second compound 1 µM, first compound 10 µM
[29] = second compound 3.16 µM, first compound 0.316 µM
[30] = second compound 3.16 µM, first compound 1 µM
[31] = second compound 3.16 µM, first compound 3.16 µM
[32] = second compound 3.16 µM, first compound 10 µM
[33] = second compound 10 µM, first compound 0.316 µM
[34] = second compound 10 µM, first compound 1 µM
[35] = second compound 10 µM, first compound 3.16 µM
[36] = second compound 10 µM, first compound 10 µM
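Note: spheroids exposed to agents for seven days before readout.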
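Throughout, for viability, T/C: percent of DMSO vehicle control wells so 100% = untreated growth.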

Cn1ncnc1[C@H]1c2n[nH]c(=O)c3cc(F)cc(c23)N[C@@H]1c1ccc(F)cc1 + CNC(=O)c1ccc(Nc2nc(OC3CCCC3)c3c(-c4ccc5nc(C)oc5c4)c[nH]c3n2)c(OC)c1
pIC50 (second compound 0.0316 µM): < 7.00 | pIC50 (second compound 0.1 µM): < 7.00 | pIC50 (second compound 0.316 µM): < 7.00 | pIC50 (second compound 1 µM): > 9.50 | pIC50 (second compound 3.16 µM): > 9.50 | pIC50 (second compound 10 µM): > 9.50 | viability, T/C (second compound 0.0316 µM, first compound 0.000316 µM): 126% | viability, T/C (second compound 0.0316 µM, first compound 0.001 µM): 118% | viability, T/C (second compound 0.0316 µM, first compound 0.00316 µM): 104% | viability, T/C (second compound 0.0316 µM, first compound 0.01 µM): 110% | viability, T/C [1]: 86.8% | viability, T/C [2]: 97.1% | viability, T/C (second compound 0.1 µM, first compound 0.000316 µM): 86.2% | viability, T/C (second compound 0.1 µM, first compound 0.001 µM): 75.3% | viability, T/C (second compound 0.1 µM, first compound 0.00316 µM): 78.9% | viability, T/C (second compound 0.1 µM, first compound 0.01 µM): 85.3% | viability, T/C [3]: 76.1% | viability, T/C [4]: 66% | viability, T/C (second compound 0.316 µM, first compound 0.000316 µM): 69.6% | viability, T/C (second compound 0.316 µM, first compound 0.001 µM): 66.7% | viability, T/C (second compound 0.316 µM, first compound 0.00316 µM): 55.5% | viability, T/C (second compound 0.316 µM, first compound 0.01 µM): 67.8% | viability, T/C [5]: 70% | viability, T/C [6]: 51.6% | viability, T/C (second compound 1 µM, first compound 0.000316 µM): 41.3% | viability, T/C (second compound 1 µM, first compound 0.001 µM): 45.5% | viability, T/C (second compound 1 µM, first compound 0.00316 µM): 48.5% | viability, T/C (second compound 1 µM, first compound 0.01 µM): 38.3% | viability, T/C [7]: 52% | viability, T/C [8]: 43.4% | viability, T/C (second compound 3.16 µM, first compound 0.000316 µM): 36.7% | viability, T/C (second compound 3.16 µM, first compound 0.001 µM): 47.2% | viability, T/C (second compound 3.16 µM, first compound 0.00316 µM): 42.4% | viability, T/C (second compound 3.16 µM, first compound 0.01 µM): 43.9% | viability, T/C [9]: 51.5% | viability, T/C [10]: 43.3% | viability, T/C (second compound 10 µM, first compound 0.000316 µM): 37.1% | viability, T/C (second compound 10 µM, first compound 0.001 µM): 36.6% | viability, T/C (second compound 10 µM, first compound 0.00316 µM): 42.6% | viability, T/C (second compound 10 µM, first compound 0.01 µM): 45.7% | viability, T/C [11]: 43.1% | viability, T/C [12]: 43.1%

Nc1ccn(C2OC(CO)C(O)C2(F)F)c(=O)n1 (stereo unspecified) + CNC(=O)c1ccc(Nc2nc(OC3CCCC3)c3c(-c4ccc5nc(C)oc5c4)c[nH]c3n2)c(OC)c1
pIC50 (second compound 0.0316 µM): > 7.50 | pIC50 (second compound 0.1 µM): > 7.50 | pIC50 (second compound 0.316 µM): > 7.50 | pIC50 (second compound 1 µM): > 7.50 | pIC50 (second compound 3.16 µM): > 7.50 | pIC50 (second compound 10 µM): > 7.50 | viability, T/C [1]: 30.7% | viability, T/C [2]: 33% | viability, T/C [13]: 30.3% | viability, T/C [14]: 27.9% | viability, T/C [15]: 27.9% | viability, T/C [16]: 30.4% | viability, T/C [3]: 37.4% | viability, T/C [4]: 33.3% | viability, T/C [17]: 26% | viability, T/C [18]: 32.3% | viability, T/C [19]: 30.2% | viability, T/C [20]: 32.1% | viability, T/C [5]: 32.9% | viability, T/C [6]: 27.8% | viability, T/C [21]: 25.4% | viability, T/C [22]: 27.8% | viability, T/C [23]: 28.1% | viability, T/C [24]: 25.2% | viability, T/C [7]: 24.2% | viability, T/C [8]: 21.4% | viability, T/C [25]: 21.4% | viability, T/C [26]: 18.9% | viability, T/C [27]: 17.8% | viability, T/C [28]: 18.9% | viability, T/C [9]: 25.6% | viability, T/C [10]: 22.8% | viability, T/C [29]: 21.6% | viability, T/C [30]: 21.2% | viability, T/C [31]: 19.7% | viability, T/C [32]: 18.2% | viability, T/C [11]: 26.7% | viability, T/C [12]: 23% | viability, T/C [33]: 24.2% | viability, T/C [34]: 21.1% | viability, T/C [35]: 22% | viability, T/C [36]: 15.8%

O=C(c1cc(Cc2n[nH]c(=O)c3ccccc23)ccc1F)N1CCN(C(=O)C2CC2)CC1 + CNC(=O)c1ccc(Nc2nc(OC3CCCC3)c3c(-c4ccc5nc(C)oc5c4)c[nH]c3n2)c(OC)c1
pIC50 (second compound 0.0316 µM): < 5.00 | pIC50 (second compound 0.1 µM): < 5.00 | pIC50 (second compound 0.316 µM): < 5.00 | pIC50 (second compound 1 µM): < 5.00 | pIC50 (second compound 3.16 µM): > 7.50 | pIC50 (second compound 10 µM): > 7.50 | viability, T/C [1]: 129% | viability, T/C [2]: 115% | viability, T/C [13]: 107% | viability, T/C [14]: 105% | viability, T/C [15]: 117% | viability, T/C [16]: 92% | viability, T/C [3]: 101% | viability, T/C [4]: 93.4% | viability, T/C [17]: 94.4% | viability, T/C [18]: 95.4% | viability, T/C [19]: 88.6% | viability, T/C [20]: 82.2% | viability, T/C [5]: 64.3% | viability, T/C [6]: 64.4% | viability, T/C [21]: 57.9% | viability, T/C [22]: 61.8% | viability, T/C [23]: 73.2% | viability, T/C [24]: 63.1% | viability, T/C [7]: 55.4% | viability, T/C [8]: 47.4% | viability, T/C [25]: 51.5% | viability, T/C [26]: 53.4% | viability, T/C [27]: 51.3% | viability, T/C [28]: 52.5% | viability, T/C [9]: 44% | viability, T/C [10]: 52.6% | viability, T/C [29]: 46.8% | viability, T/C [30]: 48.3% | viability, T/C [31]: 40% | viability, T/C [32]: 48.8% | viability, T/C [11]: 44.3% | viability, T/C [12]: 44.7% | viability, T/C [33]: 44.5% | viability, T/C [34]: 43.8% | viability, T/C [35]: 46.7% | viability, T/C [36]: 53.4%

Reference: PubChem BioAssay AID2060619 (Molecular Pharmacology Branch, DTP, NCI, 2025)
